Holding throughout (test): relative viability (nuclei count vs DMSO), 5 days (fraction); higher = more cells survive
Compound in test [1]: CCc1cnn2c(NCc3ccc[n+]([O-])c3)cc(N3CCCC[C@H]3CCO)nc12 [Dinaciclib] + Cc1cc(Nc2cc(N3CCN(C)CC3)nc(Sc3ccc(NC(=O)C4CC4)cc3)n2)n[nH]1 [Tozasertib] (partner 0.1 µM)
An outline of the steps:
(§1)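 Lung cancer cell lines were seeded in 1536-well plates and dosed by pin tool the next day, with either a single drug or a fixed anchor-drug dose combined with five library-drug doses (not always all listed) spaced in √10 steps. Five days later, one step fixed the cells and stained their nuclei (final 0.05% Triton X-100, 1% formaldehyde, 1 ug/ml Hoechst), and nuclei were counted on 4× images. Relative viability is the nuclei count in treated wells divided by the count in vehicle wells, and each value is the median of duplicate plates.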

Compound in test [2]: CCc1cnn2c(NCc3ccc[n+]([O-])c3)cc(N3CCCC[C@H]3CCO)nc12 [Dinaciclib] + CC1(C)CCC(c2ccc(Cl)cc2)=C(CN2CCN(c3ccc(C(=O)NS(=O)(=O)c4ccc(N[C@H](CCN5CCOCC5)CSc5ccccc5)c(S(=O)(=O)C(F)(F)F)c4)cc3)CC2)C1 [Navitoclax] (partner 0.5 µM)
An outline of the steps: as §1

Compound in test [3]: CCc1cnn2c(NCc3ccc[n+]([O-])c3)cc(N3CCCC[C@H]3CCO)nc12 [Dinaciclib] + COc1cccc2cc(-c3nc([C@H]4CC[C@H](C(=O)O)CC4)n4ncnc(N)c34)[nH]c12 [OSI-027] (partner 0.5 µM)
An outline of the steps: as §1

Compound in test [4]: CCc1cnn2c(NCc3ccc[n+]([O-])c3)cc(N3CCCC[C@H]3CCO)nc12 [Dinaciclib] + COc1cc2c(Oc3ccc(NC(=O)C4(C(=O)Nc5ccc(F)cc5)CC4)cc3F)ccnc2cc1OCCCN1CCOCC1 [Foretinib] (partner 0.25 µM)
The procedure, abridged: as §1

Compound in test [5]: CCc1cnn2c(NCc3ccc[n+]([O-])c3)cc(N3CCCC[C@H]3CCO)nc12 [Dinaciclib] + Nc1nc2[nH]cc(CCc3ccc(C(=O)N[C@@H](CCC(=O)O)C(=O)O)cc3)c2c(=O)[nH]1 [Pemetrexed] (partner 0.2 µM)
An outline of the steps:
as §1

As to LXF-289, the relative viability in test [1] (first compound 0.009487 µM) was 0.183; in test [1] (first compound 0.03 µM), 0.149; in test [1] (first compound 0.09487 µM) it was 0.0561; in test [1] (first compound 0.3 µM), 0.0572; in test [2] (first compound 0.009487 µM), 0.921; in test [2] (first compound 0.03 µM) it was 0.189. The relative viability is 0.0659 in test [2] (first compound 0.09487 µM); 0.0645 in test [2] (first compound 0.3 µM); 0.948 in test [3] (first compound 0.009487 µM); 0.4 in test [3] (first compound 0.03 µM); 0.0693 in test [3] (first compound 0.09487 µM); 0.0617 in test [3] (first compound 0.3 µM). The relative viability was 1.03 in test [4] (first compound 0.009487 µM); 0.706 in test [4] (first compound 0.03 µM); 0.0732 in test [4] (first compound 0.09487 µM); 0.0742 in test [4] (first compound 0.3 µM); 0.815 in test [5] (first compound 0.009487 µM); 0.254 in test [5] (first compound 0.03 µM). Besides, the relative viability in test [5] (first compound 0.09487 µM) is 0.0816; in test [5] (first compound 0.3 µM), 0.0773.
As for NCI-H23, the relative viability stood at 0.246 in test [1] (first compound 0.009487 µM); 0.131 in test [1] (first compound 0.03 µM); 0.116 in test [1] (first compound 0.09487 µM); 0.13 in test [1] (first compound 0.3 µM); 0.74 in test [2] (first compound 0.009487 µM); 0.173 in test [2] (first compound 0.03 µM). The relative viability in test [2] (first compound 0.09487 µM) was 0.113; in test [2] (first compound 0.3 µM) it was 0.12; in test [3] (first compound 0.009487 µM), 0.714; in test [3] (first compound 0.03 µM), 0.227; in test [3] (first compound 0.09487 µM) it was 0.132; in test [3] (first compound 0.3 µM), 0.1. The relative viability amounted to 0.57 in test [4] (first compound 0.009487 µM); 0.187 in test [4] (first compound 0.03 µM); 0.108 in test [4] (first compound 0.09487 µM); 0.15 in test [4] (first compound 0.3 µM); 0.445 in test [5] (first compound 0.009487 µM); 0.156 in test [5] (first compound 0.03 µM). Besides, the relative viability in test [5] (first compound 0.09487 µM) was determined as 0.113; in test [5] (first compound 0.3 µM), 0.117.
For NCI-H322M, the relative viability in test [1] (first compound 0.009487 µM) worked out at 0.417; in test [1] (first compound 0.03 µM), 0.263; in test [1] (first compound 0.09487 µM), 0.303; in test [1] (first compound 0.3 µM), 0.259; in test [2] (first compound 0.009487 µM), 1.27; in test [2] (first compound 0.03 µM) it was 1.2. For the same cell line, the relative viability was determined as 0.587 in test [2] (first compound 0.09487 µM); 0.205 in test [2] (first compound 0.3 µM); 0.419 in test [3] (first compound 0.009487 µM); 0.286 in test [3] (first compound 0.03 µM); 0.323 in test [3] (first compound 0.09487 µM); 0.285 in test [3] (first compound 0.3 µM). Besides, the relative viability in test [4] (first compound 0.009487 µM) is 0.801; in test [4] (first compound 0.03 µM), 0.287; in test [4] (first compound 0.09487 µM), 0.302; in test [4] (first compound 0.3 µM), 0.281; in test [5] (first compound 0.009487 µM) it was 0.569; in test [5] (first compound 0.03 µM), 0.326. Besides, the relative viability in test [5] (first compound 0.09487 µM) stood at 0.313; in test [5] (first compound 0.3 µM), 0.343.
For NCI-H441, the relative viability in test [1] (first compound 0.009487 µM) amounted to 0.603; in test [1] (first compound 0.03 µM), 0.223; in test [1] (first compound 0.09487 µM), 0.23; in test [1] (first compound 0.3 µM) it was 0.175; in test [2] (first compound 0.009487 µM), 0.655; in test [2] (first compound 0.03 µM) it was 0.11. For the same cell line, the relative viability in test [2] (first compound 0.09487 µM) is 0.135; in test [2] (first compound 0.3 µM), 0.128; in test [3] (first compound 0.009487 µM) it was 0.519; in test [3] (first compound 0.03 µM), 0.185; in test [3] (first compound 0.09487 µM) it was 0.202; in test [3] (first compound 0.3 µM), 0.153. Moreover, the relative viability in test [4] (first compound 0.009487 µM) stood at 0.789; in test [4] (first compound 0.03 µM) it was 0.204; in test [4] (first compound 0.09487 µM), 0.174; in test [4] (first compound 0.3 µM) it was 0.222; in test [5] (first compound 0.009487 µM) it was 0.263; in test [5] (first compound 0.03 µM), 0.168. Moreover, the relative viability in test [5] (first compound 0.09487 µM) was 0.12; in test [5] (first compound 0.3 µM), 0.128.
Take NCI-H460: the relative viability worked out at 0.489 in test [1] (first compound 0.009487 µM); 0.0458 in test [1] (first compound 0.03 µM); 0.015 in test [1] (first compound 0.09487 µM); 0.0209 in test [1] (first compound 0.3 µM); 1.05 in test [2] (first compound 0.009487 µM); 0.0119 in test [2] (first compound 0.03 µM). In addition, the relative viability in test [2] (first compound 0.09487 µM) is 0.0108; in test [2] (first compound 0.3 µM) it was 0.0098; in test [3] (first compound 0.009487 µM) it was 0.392; in test [3] (first compound 0.03 µM), 0.0364; in test [3] (first compound 0.09487 µM), 0.0185; in test [3] (first compound 0.3 µM), 0.0206. Also, the relative viability in test [4] (first compound 0.009487 µM) stood at 0.803; in test [4] (first compound 0.03 µM), 0.0417; in test [4] (first compound 0.09487 µM), 0.0257; in test [4] (first compound 0.3 µM) it was 0.0233; in test [5] (first compound 0.009487 µM), 0.0617; in test [5] (first compound 0.03 µM), 0.0567. Further, the relative viability in test [5] (first compound 0.09487 µM) was found to be 0.0208; in test [5] (first compound 0.3 µM), 0.017.
On to NCI-H520, for which the relative viability in test [1] (first compound 0.009487 µM) came to 0.473; in test [1] (first compound 0.03 µM), 0.201; in test [1] (first compound 0.09487 µM) it was 0.181; in test [1] (first compound 0.3 µM), 0.208; in test [2] (first compound 0.009487 µM), 0.69; in test [2] (first compound 0.03 µM) it was 0.12. Moreover, the relative viability in test [2] (first compound 0.09487 µM) came to 0.12; in test [2] (first compound 0.3 µM), 0.117; in test [3] (first compound 0.009487 µM) it was 0.277; in test [3] (first compound 0.03 µM), 0.179; in test [3] (first compound 0.09487 µM), 0.19; in test [3] (first compound 0.3 µM), 0.156. Also, the relative viability amounted to 0.573 in test [4] (first compound 0.009487 µM); 0.126 in test [4] (first compound 0.03 µM); 0.136 in test [4] (first compound 0.09487 µM); 0.151 in test [4] (first compound 0.3 µM); 0.483 in test [5] (first compound 0.009487 µM); 0.123 in test [5] (first compound 0.03 µM). Further, the relative viability in test [5] (first compound 0.09487 µM) is 0.139; in test [5] (first compound 0.3 µM), 0.127.
As for NCI-H596, the relative viability in test [1] (first compound 0.009487 µM) was determined as 0.853; in test [1] (first compound 0.03 µM) it was 0.456; in test [1] (first compound 0.09487 µM) it was 0.176; in test [1] (first compound 0.3 µM) it was 0.164; in test [2] (first compound 0.009487 µM), 0.872; in test [2] (first compound 0.03 µM), 0.276. Further, the relative viability in test [2] (first compound 0.09487 µM) is 0.0498; in test [2] (first compound 0.3 µM), 0.09; in test [3] (first compound 0.009487 µM), 0.787; in test [3] (first compound 0.03 µM), 0.665; in test [3] (first compound 0.09487 µM) it was 0.392; in test [3] (first compound 0.3 µM), 0.153. Besides, the relative viability in test [4] (first compound 0.009487 µM) turned out to be 0.861; in test [4] (first compound 0.03 µM), 0.547; in test [4] (first compound 0.09487 µM), 0.176; in test [4] (first compound 0.3 µM), 0.178; in test [5] (first compound 0.009487 µM), 0.404; in test [5] (first compound 0.03 µM), 0.396. Besides, the relative viability in test [5] (first compound 0.09487 µM) was 0.24; in test [5] (first compound 0.3 µM), 0.225.

For the origin of these results see the supplement of paper PMC10307832.
